Values after ≈ are worked out from the molar mass of the structure shown.

For this data set the following is noted: buffer; pH 7.4; 200.0 µM.
As to `CCc1noc(C)c1C(=O)Nc1nc2c(C)cccc2s1`, the kinetic solubility was 8.6 µg/mL (≈ 28.5 µM). `Cc1cccc(NC(=O)/C(C#N)=C/c2ccc(Cl)cc2)n1` returned a solubility (kinetic) of 0.6 µg/mL (≈ 2.02 µM). The result for `O=c1[nH]c2ccccc2nc1C(Nc1ccccc1)c1ccccc1` (stereo not drawn) reads < 0.2 µg/mL; that for `O=S(=O)(c1ccc(Cl)cc1)N1CCN(c2ncccn2)CC1`, 0.9 µg/mL (≈ 2.66 µM); that for `O=C(c1ccc(C(F)(F)F)cc1)C1CCCN(C(=O)c2cnccn2)C1` (stereo not drawn), 45.6 µg/mL (≈ 126 µM).

For `O=C(NCCCSc1ccccc1)c1ccc(=O)[nH]c1`, the solubility (kinetic) is > 43.3 µg/mL.

Regarding `O=C(NNC(=O)c1ccncc1)Nc1cccc([N+](=O)[O-])c1`, the solubility (kinetic) was > 45.2 µg/mL.

As to `Cc1cc(OCCCC(=O)NCCc2ccccn2)ccc1Cl`, the kinetic solubility is > 49.9 µg/mL. To `CNC(=O)c1ccccc1Nc1ccc(SC(F)F)cc1` belongs 28.6 µg/mL (≈ 92.8 µM); to `Cc1cc(C)c(S(=O)(=O)N2CCCCC2C(=O)O)c(C)c1` (stereo not drawn), > 46.7 µg/mL. Consider `CCC(=O)Nc1cccc2cccnc12`, for which the solubility (kinetic) amounted to 25 µg/mL (≈ 125 µM). `COc1ccc(CNC(=O)c2cncc(Br)c2)cc1`: the kinetic solubility was 45.8 µg/mL (≈ 143 µM). To `O=C(CNC(=O)c1ccc(Cl)cc1)NC(CO)c1ccccc1` (stereo not drawn) belongs 32.6 µg/mL (≈ 98 µM). For the compound `Cn1c(=O)n(C)c2cc(S(=O)(=O)NCC(=O)O)ccc21`, the solubility (kinetic) is > 44.9 µg/mL. To `Cc1cc(C)c(NC(=O)C2CC(=O)N(C3CCCC3)C2)c(C)c1` (stereo not drawn) belongs > 47.2 µg/mL. The result for `O=C(CSc1nc(-c2ccc(F)cc2)cs1)NCC1CCCO1` (stereo not drawn) reads > 52.9 µg/mL; that for `COc1ccc(C(CNc2ncnc3sccc23)N(C)C)cc1OC` (stereo not drawn), 35.5 µg/mL (≈ 99 µM); that for `COC(=O)c1sccc1NC(=S)N1CCC(C(N)=O)CC1`, 42.5 µg/mL (≈ 130 µM).

For `CC1(c2ccc3ccccc3c2)NC(=O)N(CC(=O)O)C1=O` (stereo not drawn), the solubility (kinetic) was > 44.7 µg/mL.

For the compound `Cc1ccc(S(=O)(=O)N2CCCC(N3CCOCC3)C2)cc1Cl` (stereo not drawn), the solubility (kinetic) is > 53.8 µg/mL. The result for `COc1ccc(C(=O)NC2=NCCS2)cc1` reads > 35.4 µg/mL; that for `CCN(c1ccccc1)S(=O)(=O)c1ccc(N2CCN(c3ccc(OC)cc3)CC2)nc1`, 1.2 µg/mL (≈ 2.65 µM). For the compound `O=C(Nc1ccc2c(c1)OCO2)c1ccccc1`, the solubility (kinetic) was > 36.2 µg/mL. To `Cc1cc(C)nc(NCc2ccc(Cl)cc2)n1.Cl` belongs 5.4 µg/mL; to `Cc1c(OCC(F)(F)F)ccnc1CS(=O)c1nc2ccccc2[nH]1` (stereo not drawn), > 55.4 µg/mL. To `CN1CCN(C(=O)CNC(=O)c2cccs2)CC1` belongs > 40.1 µg/mL. The result for `O=c1[nH]c(SCCOc2ccccc2F)nc2ccccc12` reads 0.9 µg/mL (≈ 2.84 µM). Consider `O=c1c2ccccc2nc(/C=C/c2ccc(Br)cc2)n1CCO`, for which the kinetic solubility amounted to 0.8 µg/mL (≈ 2.15 µM). The result for `Cc1c(NC2=CC(=O)CC(C)(C)C2)c(=O)n(-c2ccccc2)n1C` reads > 48.8 µg/mL. Compound `Cc1ccc(NC(=O)c2cc(C)no2)cc1` registered a kinetic solubility of 26.2 µg/mL (≈ 121 µM). The result for `COc1ccc(C2c3sc(=O)[nH]c3SCC2C(N)=O)cc1` (stereo not drawn) reads 40 µg/mL (≈ 124 µM). For the compound `COc1ccc(/C=N/OCC(=O)N2CCCC2)c(OC)c1`, the solubility (kinetic) is > 43.9 µg/mL. Turning to `Cc1oc(C(C)(C)C)cc1C(N)=O`, the solubility (kinetic) is > 27.2 µg/mL.

With `CCCCn1c(N)c(N(CC)C(=O)c2ccco2)c(=O)[nH]c1=O`, the kinetic solubility is > 48.1 µg/mL. The result for `CN(c1cccc2cccnc12)S(=O)(=O)c1ccccc1` reads 40.7 µg/mL (≈ 136 µM). The result for `CNC(=O)N1c2ccccc2CCc2ccccc21` reads > 37.8 µg/mL; that for `Nc1ccc(-c2cc3ccccc3oc2=O)cc1`, 17.9 µg/mL (≈ 75.4 µM). The result for `Cc1ccccc1-c1nc(C#N)c(N2CCC(C)CC2)o1` reads < 0.2 µg/mL; that for `CN(CC(=O)Nc1cccc2ccccc12)C(=O)c1ccc(NC(=O)CC#N)cc1`, > 60.1 µg/mL; that for `CC1(c2ccc(Cl)cc2)NC(=O)N(CC(=O)N2CCc3ccccc32)C1=O` (stereo not drawn), 1.5 µg/mL (≈ 3.91 µM). In the case of `Cn1cc(/C=C2\SC(=O)N(c3ccc(O)cc3)C2=O)c2ccccc21`, the solubility (kinetic) was < 0.4 µg/mL. The result for `OC(CN1CCCCC1)c1c[nH]c2ccccc12` (stereo not drawn) reads > 36.7 µg/mL. The result for `Cc1cc2c(=O)oc(-c3ccc(Br)cc3)nc2s1` reads < 0.7 µg/mL. The result for `Cc1ccccc1NC(=S)NNC(=O)c1ccco1` reads > 41.3 µg/mL; that for `CC(=O)NC(CC(=O)OCC(=O)Nc1cc(S(=O)(=O)N2CCCCC2)ccc1C)c1ccccc1` (stereo not drawn), > 75.2 µg/mL; that for `O=C(CN1C(=O)NC(c2ccccc2)(c2ccccc2)C1=O)NCCNCCO`, > 59.5 µg/mL. With `O=C(/C=C/c1ccccc1)N(Cc1cccs1)C1CCS(=O)(=O)C1` (stereo not drawn), the solubility (kinetic) is > 54.2 µg/mL.

In the case of `COc1ccc2oc(C(=O)NCc3ccco3)c(C)c2c1`, the kinetic solubility was 31.6 µg/mL (≈ 111 µM). To `CC(C)c1ccc(C(=O)NC(=S)Nc2ccc3[nH]c(=O)[nH]c3c2)cc1` belongs 0.5 µg/mL (≈ 1.41 µM); to `COCCNC(=O)C(=O)Nc1cc2c3c(c1)CC(=O)N3CCC2`, 42.3 µg/mL (≈ 133 µM). Turning to `CC(=O)OCCN(C)c1cc(SC(C)C)c2nonc2c1[N+](=O)[O-]`, the solubility (kinetic) was 51.2 µg/mL (≈ 144 µM).

Consider `CC(=O)C1=C(O)C(=O)N(c2ccc(O)cc2)C1c1ccccc1F` (stereo not drawn), for which the solubility (kinetic) was > 49.1 µg/mL. In the case of `CCOc1ccccc1N=Cc1c(O)c2ccccc2oc1=O`, the solubility (kinetic) was < 0.7 µg/mL. In turn, `O=C1/C(=C/c2cccnc2)SC(=S)N1c1ccc(O)cc1` registered a kinetic solubility of 0.9 µg/mL (≈ 2.86 µM). To `C=CCn1c(C)nnc1SCC(=O)NC1CC1` belongs > 37.9 µg/mL; to `CCC(C)c1ccc(NC(=S)N2CCN(c3ccccn3)CC2)cc1` (stereo not drawn), 2.6 µg/mL (≈ 7.33 µM). As for `O=C(NCc1ccco1)C1CC(c2ccc(Cl)c(Cl)c2)=NO1` (stereo not drawn), the kinetic solubility was found to be 1.4 µg/mL (≈ 4.13 µM). To `CCOc1ncccc1C(=O)Nc1cc(C(F)(F)F)ccc1N1CCOCC1` belongs 4.1 µg/mL (≈ 10.4 µM); to `Cl.N[C@@H](CCl)C(=O)O`, > 24 µg/mL; to `CN(C)c1ccc(/C=C2\SC(N3CCCCC3)=NC2=O)cc1`, 4.7 µg/mL (≈ 14.9 µM).

`C=CCN=C1S/C(=C\c2ccc(Cl)cc2)C(=O)N1CC=C`: the kinetic solubility stood at 2 µg/mL (≈ 6.27 µM).

Consider `Cc1ccc(C)c(S(=O)(=O)N2CCN(C(=O)[C@H](Cc3ccccc3)NC(=O)c3ccco3)CC2)c1`, for which the kinetic solubility came to 18.2 µg/mL (≈ 36.7 µM). As for `COC(=O)COc1cccc2c(=O)n(CC(=O)N3CCC(C)CC3)ccc12`, the solubility (kinetic) was > 55.9 µg/mL. The result for `COc1cc(CC(=O)OCC(=O)NC2CCCCCC2)cc(OC)c1OC` reads > 56.9 µg/mL. To `CN1CCN(C(=O)CNC(=O)Cc2ccc(Cl)cc2)CC1` belongs > 46.5 µg/mL. To `CC(C)(C)c1ccc(C(=O)Nc2ccc(F)cc2)s1` belongs < 0.6 µg/mL; to `CCOc1ccc(S(=O)(=O)NC2CCCCCC2)cc1`, < 0.6 µg/mL; to `CC(=O)NCCc1nc2cc(NC(=O)c3cccc([N+](=O)[O-])c3)ccc2n1C`, 3.5 µg/mL (≈ 9.18 µM). For the compound `NC(=O)C1CCN(C(=O)/C(=C/c2ccco2)NC(=O)c2ccccc2)CC1`, the kinetic solubility is > 55.1 µg/mL. To `O=C1Nc2ccccc2/C1=C/c1ccccc1Cl` belongs 3.2 µg/mL (≈ 12.5 µM).

`Cc1cccc(/C=C/c2onc(C)c2[N+](=O)[O-])n1` showed a kinetic solubility of 2.8 µg/mL (≈ 11.4 µM). To `CN(C(=O)CN1C(=O)NC2(CCCc3ccccc32)C1=O)C1CCCCC1` (stereo not drawn) belongs > 55.4 µg/mL; to `Cc1ccc(NS(=O)(=O)N2CCOCC2)cc1`, > 38.4 µg/mL.

On to `COc1ccccc1/C=C/C(=O)OCC(=O)NC1CCCCCCC1`, for which the solubility (kinetic) turned out to be 7.4 µg/mL (≈ 21.4 µM). To `CN(C)C(=O)COc1ncnc2scc(-c3ccc(F)cc3)c12` belongs 45.8 µg/mL (≈ 138 µM). Consider `O=C(CSc1nccn1-c1ccccc1)NO`, for which the kinetic solubility came out at 32.1 µg/mL (≈ 129 µM).

The compound `O=C(Nc1ccc2c(c1)OCCO2)c1cccnc1Oc1ccc(Cl)cc1` displayed a solubility (kinetic) of 5.5 µg/mL (≈ 14.4 µM). With `COCCNC(=S)N1CCN(Cc2cccc(OC)c2)CC1`, the solubility (kinetic) stood at 42.5 µg/mL (≈ 131 µM). To `CCN(CC)c1nc(-c2ccccc2)nc2ccccc12.Cl` belongs 0.5 µg/mL. In the case of `O=C1CCCCCN1CP(=O)(O)CN1CCCCCC1=O`, the kinetic solubility amounted to 46.1 µg/mL (≈ 146 µM). Regarding `O=C(Nc1ccc(Cl)c(S(=O)(=O)N2CCOCC2)c1)C1CCCC1`, the solubility (kinetic) was > 55.9 µg/mL.

`CCC(C)(C)C(=O)Nc1cccc(Cl)c1C`: the kinetic solubility is > 36 µg/mL. The result for `CC(C)(C)NC(=O)N1CCCN(c2ccc(C(F)(F)F)cn2)CC1` reads > 51.7 µg/mL; that for `O=C(CSc1ncnc2ccccc12)Nc1ccc2c(c1)OCCO2`, 1.3 µg/mL (≈ 3.68 µM); that for `CSc1sc(C(=O)NCC2CC2)c(-c2cccs2)c1C#N`, 8.6 µg/mL (≈ 25.7 µM). The result for `Cc1cccnc1NC(=O)CCc1c[nH]c2ccccc12` reads > 41.9 µg/mL; that for `O=C1CN(C(=O)c2cccc([N+](=O)[O-])c2)CC(=O)N1`, > 39.5 µg/mL. The result for `Cc1cc(C)cc(NC(=O)CN2CCN(C(=O)C3CCCO3)CC2)c1` (stereo not drawn) reads > 51.8 µg/mL; that for `O=C(Nc1cccnc1Cl)c1ccc(=O)oc1`, > 37.6 µg/mL; that for `CC(C)[C@H](NC(=O)c1ccccc1)C(=O)NC1=NCCS1`, 44.6 µg/mL (≈ 146 µM).

`O=C(c1ccc(NC(=S)NCc2ccco2)cc1)N1CCOCC1` showed a solubility (kinetic) of 41.6 µg/mL (≈ 120 µM). To `O=C(CS(=O)(=O)c1ccccc1)Nc1ccccn1` belongs > 41.4 µg/mL; to `c1ccc(CCOn2ccnc2)cc1`, > 28.2 µg/mL. The result for `O=c1[nH]cnc2sc3c(c12)CCC3` reads > 28.8 µg/mL. The result for `N#Cc1cccnc1N1CCN(C(=O)COCC(=O)O)CC1` reads 41 µg/mL (≈ 135 µM); that for `CCOc1ccc(N2C(=O)CC(NCC#N)C2=O)cc1` (stereo not drawn), > 41 µg/mL; that for `Cc1ccc2c(c1)N(CC(=O)NCc1ccco1)C(=O)C(C(C)C)O2` (stereo not drawn), 22.8 µg/mL (≈ 66.6 µM). For the compound `CCS(=O)(=O)N1CCC(C(=O)Nc2cc(C)ccc2O)CC1`, the solubility (kinetic) was > 49 µg/mL. To `NS(=O)(=O)c1cccc(NC(=O)c2cccc(S(=O)(=O)N3CCCCCC3)c2)c1` belongs 49.9 µg/mL (≈ 114 µM); to `Cc1noc(C)c1CSCC(=O)Nc1cccc(C(F)(F)F)c1`, > 51.7 µg/mL. To `CC(C)CCn1cnc2c(oc3nc4c(cc32)CCCC4)c1=O` belongs 43 µg/mL (≈ 138 µM); to `COc1cccc2c1OCC(C(=O)Nc1nccs1)=C2`, 18.2 µg/mL (≈ 63.1 µM); to `C=CCn1c(SCCCC)nc([O-])cc1=O.[NH4+]`, 22.4 µg/mL.

For the origin of these results see PubChem BioAssay AID1996.
